We go through 16 compounds from US20220354963A1, “EXTRACELLULAR VESICLE LINKED TO MOLECULES AND USES THEREOF” (Codiak BioSciences, Inc., priority 2019, published 2022).

The IC50 is the concentration that gives 50% inhibition.

Data set [1] deals with STAT3 mRNA. The data set is described as follows: STAT3 mRNA expression in IL-6 stimulated PANC-1 cells, branched DNA assay. Format: cell-based, human. To be noted: 5 point DR data.
Data set [2] concerns STAT3 mRNA. The data set is described as above. It is filed as cell-based, human. Particulars: for STAT3 Inhibition 2 nM / STAT3 Inhibition 20 nM: 2 point DR data; for IC50: 5 point DR data, Lipofectamine2000 transfection, 48 hr, read-out: STAT3 PANC1 IC50 Prism. On the procedure:
The ASOs of the present disclosure were tested for their ability to reduce STAT3 mRNA expression in IL-6 stimulated PANC-1 cells. The PANC-1 cells were grown in cell culture media and seeded onto a 96 well plate at a density of 20,000 cells/well. ASOs were tested in two separate cohorts: 2 doses or 5 doses were given to the PANC-1 cells (See TABLE 3) at final concentrations of 20 nM and 2 nM, respectively. The assay used Lipofectamine2000 transfection and a 48 hr treatment cycle, with incubation at 37° C. and 5% C02. Analysis of the mRNA expression was then carried out using a branched DNA assay.

The subject of the next data set is GAPDH. As to the kind of experiment: GAPDH inhibition in PANC-1 cells, same assay. Particulars: 2 point DR data. Format: cell-based, human. The method, then:
The PANC-1 cells were grown in cell culture media and seeded onto a 96 well plate at a density of 20,000 cells/well. ASOs were tested in two separate cohorts: 2 doses or 5 doses were given to the PANC-1 cells (See TABLE 3) at final concentrations of 20 nM and 2 nM, respectively. The assay used Lipofectamine2000 transfection and a 48 hr treatment cycle, with incubation at 37° C. and 5% C02. Analysis of the mRNA expression was then carried out using a branched DNA assay.

In the next data set the test system is IL-1β. The data set is described as follows: In vivo peritonitis model, intraperitoneal LPS challenge, serum IL-1β. More on the design: species or system mouse. Particulars: pre-treatment intraperitoneally 1 hour prior to challenge; 3 hours post-challenge. On the procedure: Intraperitoneal LPS challenge induces the production of IL-1β in mice, which can be detected in the systemic circulation 3 hours post-challenge.

For the compound “120 (ATTATCTGAACCCCACTTCG; chemistry not given here) [compound 120]”, the “STAT3 Max inihibition 24 nM” value with STAT3 mRNA [1] was 87.43. For the same compound, in the data set with STAT3 mRNA [2], the “STAT3 Inhibition 2 nM” value amounted to 62.8, the “STAT3 Inhibition 20 nM” value was found to be 93.4 and the IC50 was determined as 2.05 nM. Also, the “GAPDH Inhibition 20 nM” value with GAPDH was 12.00.
In the same order, the values of “138 (CCATCTTAATGGGACTCACG; chemistry not given here) [compound 138]” are 85.33, 53.0, 86.8, 1.31 nM and 9.00.
In the same order, the values of “135 (ACGTCTTGGTCTTGCCGATG; chemistry not given here) [compound 135]” are 78.59, 53.9, 84.2, 1.05 nM and 4.00.
Regarding “126 (TGGAATCTGCTTCTCACGTA; chemistry not given here) [compound 126]”, the “STAT3 Max inihibition 24 nM” value in the data set with STAT3 mRNA [1] was 87.71. Also, in the data set on STAT3 mRNA [2], the “STAT3 Inhibition 2 nM” value is reported as 61.4, the “STAT3 Inhibition 20 nM” value was 90.7 and the IC50 came to 2.78 nM. Moreover, in the data set with GAPDH, the “GAPDH Inhibition 20 nM” value is recorded as 13.00.
Take `CC(C)(O)c1coc(S(=O)(=O)NC(=O)Nc2c3c(cc4c2CCC4)CCC3)c1` [MCC950]: the “induction of IL-1β in the serum of LPS-challenged mice” value in the data set with IL-1β is listed as “inhibited”.
For “139 (ACTCCATCTTAATGGGACTC; chemistry not given here) [compound 139]”, the “STAT3 Max inihibition 24 nM” value in the data set on STAT3 mRNA [1] worked out at 72.50. In the data set on STAT3 mRNA [2], the “STAT3 Inhibition 2 nM” value amounted to 52.8, the “STAT3 Inhibition 20 nM” value is on record as 83.4 and the IC50 stood at 4.02 nM. For the same compound, in the data set on GAPDH, the “GAPDH Inhibition 20 nM” value stood at 10.00.
“114 (GTTGATCGCAGCGAAGATCC; chemistry not given here) [compound 114]”: the “STAT3 Max inihibition 24 nM” value with STAT3 mRNA [1] came out at 84.94. Further, in the data set with STAT3 mRNA [2], the “STAT3 Inhibition 2 nM” value is 66.4, the “STAT3 Inhibition 20 nM” value was 87.0 and the IC50 worked out at 0.814 nM. For the same compound, the “GAPDH Inhibition 20 nM” value in the data set with GAPDH was determined as 10.00.
Turning to “145 (GTCCTATGTGCTCGTCAAAG; chemistry not given here) [compound 145]”, in the data set on STAT3 mRNA [1], the “STAT3 Max inihibition 24 nM” value was found to be 85.73. Moreover, in the data set on STAT3 mRNA [2], the “STAT3 Inhibition 2 nM” value is 50.2, the “STAT3 Inhibition 20 nM” value came out at 89.2 and the IC50 was found to be 3.06 nM. Also, the “GAPDH Inhibition 20 nM” value in the data set with GAPDH is 17.00.
The matching figures for “125 (CACGTACTTTCTGTACTTCT; chemistry not given here) [compound 125]”: 81.67, 61.7, 85.1, 2.3 nM and 14.00.
Take “107 (TAGCGTGGCTAGATCCACAT; chemistry not given here) [compound 107]”: the “STAT3 Max inihibition 24 nM” value in the data set on STAT3 mRNA [1] worked out at 70.92. Also, in the data set with STAT3 mRNA [2], the “STAT3 Inhibition 2 nM” value stood at 79.0, the “STAT3 Inhibition 20 nM” value stood at 87.7 and the IC50 came out at 0.037 nM. Also, the “GAPDH Inhibition 20 nM” value with GAPDH is given as 8.00.
“142 (GGCAGCAGCTCATGATCAGG; chemistry not given here) [compound 142]”: the “STAT3 Max inihibition 24 nM” value in the data set with STAT3 mRNA [1] is 76.10. In the data set on STAT3 mRNA [2], the “STAT3 Inhibition 2 nM” value came out at 51.7, the “STAT3 Inhibition 20 nM” value is given as 80.0 and the IC50 stood at 6.76 nM. In addition, the “GAPDH Inhibition 20 nM” value in the data set with GAPDH was 9.00.
The matching figures for “130 (TGTAGCGTTTGTTGAGGCTC; chemistry not given here) [compound 130]”: 72.16, 59.3, 80.7, 1.68 nM and 13.00.
The matching figures for “105 (GGATAGTCCTCTAAGTGCAT; chemistry not given here) [compound 105]”: 85.61, 79.4, 91.6, 1.47 nM and 13.00.
“124 (ATAGAGATTCTCGAAAGGTA; chemistry not given here) [compound 124]”: the “STAT3 Max inihibition 24 nM” value in the data set on STAT3 mRNA [1] is given as 86.46. Further, in the data set on STAT3 mRNA [2], the “STAT3 Inhibition 2 nM” value is 62.6, the “STAT3 Inhibition 20 nM” value is on record as 83.3 and the IC50 came out at 1.6 nM. Besides, the “GAPDH Inhibition 20 nM” value in the data set on GAPDH stood at 13.00.
The matching figures for “112 (GCGAAGATCCACACGGCCAT; chemistry not given here) [compound 112]”: 86.32, 70.0, 91.0, 1.04 nM and −25.00.
The matching figures for “133 (GCAGTCGTGTGTAGCGTTTG; chemistry not given here) [compound 133]”: 81.73, 55.9, 90.7, 2.24 nM and 14.00.
